Measurements from patent US8039648B2, “Compounds used as dyes comperable to Alexa Fluor 350 dyes” (Pierce Biotechnology, Inc., priority 2009, dated 2011).
Counter-ions that a name gives are not always drawn.

What was measured:
[1] = UV-Vis absorption and emission maxima given with the synthesis examples; format: physicochemical
Lamin A = experiment: Immunofluorescence detection of Lamin A in HeLa cells with dye-GAM conjugates (Example 13); format: cell-based, human; settings: GAM conjugates made with the dye, 4 μg/ml, similar molar excesses
Experimental: Lamin A was stained in HeLa cells to compare […]-09111-GAM and […]-09144GAM to AMCA-GAM and Alexa Fluor 350-GAM. HeLa cells were seeded at about 10,000 cells/well in a 96-well clear bottom collagen coated tissue culture plate (BD Falcon BioCoat collagen) and cultured overnight. To fix the cells, the medium was removed and replaced at 100 μl/well with freshly prepared 4% paraformaldehyde (EMS Product #15710-S) diluted in 8 mM sodium phosphate, 2 mM potassium phosphate, 140 mM sodium chloride and 10 mM potassium chloride (PBS pH 7.4) and the cells were incubated at room temperature for 15 minutes. After 15 minutes, the cells were washed 3 times with PBS. After removal of PBS the cells were permeabilized with 100 μl/well of PBS containing 0.1% Surfact-Amps X-100. The permeabilization was carried out at room temperature (RT) for 15 minutes and then the cells were washed two times with PBS. The cells were blocked at RT for 30 minutes with (100 μl/well) PBS containing 0.1% Triton X-100 and supplemented with 2% of BlockerTM BSA (Thermo Scientific). […] The images shown in FIGS. 8A-H were acquired using the appropriate shift free optical filter set with a […] on Zeiss Axio Observer Z1 fluorescence microscope using an ORCA-ER-1394 Hamamatsu, CCD Digital Camera and the AxioVison Release 4.7 Software. […]

[2] = system: biotin and mouse IgG coated white 96-well plates; experiment: Plate-based functional testing of streptavidin and GAM conjugates (Example 12); format: binding; settings: for signal sensitivities and intensities of bound conjugates compared to conjugates made with AMCA-NHS: GAM and SA conjugates made with the dye, 4 μg/ml, ex 346/em 442
Experimental: Streptavidin and GAM conjugates made in Example 11 were analyzed on biotin and mouse IgG coated white 96-well plates. The plates were coated by making a 1:1 serial dilution of biotinylated bovine serum albumin (BSA, Thermo Scientific) and mouse IgG with starting concentrations of 2 μg/ml and 10 μg/ml, respectively. One hundred μl of each dilution was added per well. The last column on each plate was considered blank (PBS buffer only). The plates were incubated overnight at 4° C. and then blocked by washing 3×200 μl with SuperBlock Blocking Buffer in PBS (Thermo Scientific). Plates were washed 2×200 μl PBS-Surfact-Amp 20 and 1×100 μl PBS. All of the conjugates were diluted to 4 μg/ml in PBS buffer, added to the plates (100 μl/well) and incubated for one hour at room temperature (RT) (about 20° C. to about 22° C.). The plates were then washed 2×200 μl with PBS containing 0.05% Surfact-Amp 20 and 1×200 μl PBS. Finally 100 μl PBS buffer was added to the wells. The fluorescence intensity of the bound conjugate was measured on Tecan Safire using optimal Alexa Fluor 350 setting (ex 346/em 442) and optimal gain. FIGS. 7A and 7B show relative fluorescent units (RFU) and signal to background ratios (S/B), respectively, of goat anti-mouse antibodies (GAM) conjugated to amino-methyl-coumarin-acetate (AMCA), V07-09111-NHS, V07-09144-NHS, and Alexa Fluor 350-NHS. FIGS. 7C and 7D show RFU and S/B, respectively, of streptavidin (SA) conjugated to AMCA, V07-09111, V07-09144, and Alexa Fluor 350.

[3] = Absorbance spectra of the NHS dyes in PBS buffer (Example 8); format: physicochemical; settings: PBS buffer pH 7.2, 10 mg/ml in DMF diluted 1:1000
Experimental: Each of NHS-AMCA (MW=330 g/mole), V07-09111-NHS “8-isomer” (MW=874.1 g/mole), V07-0144-NHS “6-isomer” (MW=874.1 g/mole) and Alexa Fluor 350-NHS, Molecular Probes (Product #A10168) were reconstituted in DMF at 10 mg/ml and then diluted 1:1000 in PBS buffer (100 mM sodium phosphate, 150 mM NaCl; pH 7.2). Absorbance of the sample was evaluated from 440 nm to 240 nm on a UV Cary Spectrophotometer (Varian).

[4] = Absorption and emission spectra in water and ethanol (Example 9); format: physicochemical; settings: for emission spectrum maximum: excitation 345 nm
Experimental: Absorption spectra of compounds V07-09111 and V07-09144 (concentrations between 10 μM and 50 μM) in water and ethanol (spectral grade) were recorded (Analytik Jena Specord 205 absorption spectrometer, quartz cuvettes with a pathlength of 1 cm). For emission spectra determination, the solutions were diluted in PBS (100 mM, pH 7.4, 100 mM sodium chloride, 5 mM sodium azide) to an absorbance of around 0.1 at a 1 cm pathlength; emission spectra were recorded on a JASCO FP-6600 fluorescence spectrometer; excitation wavelength 345 nm, excitation and emission slits were 3 nm and 6 nm, respectively. Both absorption and emission spectra were normalized to the maxima for presentation in FIGS. 2, 3, 4, and 5.
FIGS. 2 and 3 show the absorbance and emission spectra of V07-09144 in water and ethanol, respectively. FIGS. 4 and 5 show the absorbance and emission spectra of V07-09111 in water and ethanol, respectively. The absorbance and emission spectra of V07-09111 are 350 nm and 430 nm in water, and 351 nm and 443 nm in ethanol, respectively. The absorbance and emission spectra of V07-09144 are 350 nm and 440 nm in water, and 351 nm and 443 nm in ethanol, respectively.

λem ([1]; UV-Vis (PBS)) [nm]	λmax ([1]; UV-Vis (PBS)) [nm]	absorbance maxima (AbsMax) [3] [nm]	Compound	signal sensitivities and intensities of bound conjugates compared to conjugates made with AMCA-NHS [2]	further results
–	–	347	Nc1cc2oc(=O)c3c(c2cc1S(=O)(=O)O)C(C(CC(=O)NCCCC(=O)ON1C(=O)CCC1=O)S(=O)(=O)O)CC3 (stereo not drawn) [V07-09144-NHS]	higher signal sensitivities and intensities	specificity of staining and background compared to NHS-AMCA or NHS-Alexa Fluor 350 conjugates (Lamin A): higher specificity of staining for the target with lower background
–	–	349	Cc1c(CC(=O)ON2C(=O)CCC2=O)c(=O)oc2cc(N)ccc12 [NHS-AMCA, succinimidyl-7-amino-4-methylcoumarin-3-acetate, reference compound]	–	–
440	349	–	Nc1cc2oc(=O)c3c(c2cc1S(=O)(=O)O)C(C(CC(=O)O)S(=O)(=O)O)CC3 (stereo not drawn) [V07-09142, 3-(7-amino-4-oxo-8-sulfo-1,2,3,4-tetrahydro-cyclopenta[c]chromen-1-yl)-3-sulfo propionic acid bis sodium salt]	–	–
430	352	352	Nc1ccc2c3c(c(=O)oc2c1S(=O)(=O)O)CCC3C(CC(=O)NCCCC(=O)ON1C(=O)CCC1=O)S(=O)(=O)O (stereo not drawn) [V07-09111-NHS, 4-[3-(7-amino-4-oxo-6-sulfo-1,2,3,4-tetrahydro-cyclopenta[c]chromen-1-yl)-3-sulfo-propionylamino]-butyric acid NHS ester bis diisopropyethylammonium salt]	higher signal sensitivities and intensities	specificity of staining and background compared to NHS-AMCA or NHS-Alexa Fluor 350 conjugates (Lamin A): higher specificity of staining for the target with lower background
–	–	345	Cc1c(CC(=O)ON2C(=O)CCC2=O)c(=O)oc2cc(N)c(S(=O)(=O)O)cc12 [Alexa Fluor 350-NHS, reference compound]	higher signal sensitivities and intensities	–

Further lines, the molecule ahead of its results:

Compound	λem ([1]; UV-Vis (PBS)) [nm]	λmax ([1]; UV-Vis (PBS)) [nm]	absorbance maxima (AbsMax) [3] [nm]	signal sensitivities and intensities of bound conjugates compared to conjugates made with AMCA-NHS [2]	further results
Nc1c(S(=O)(=O)O)cc2c3c(c(=O)oc2c1S(=O)(=O)O)CCC3C(CC(=O)O)S(=O)(=O)[O-].[Na+] (stereo not drawn) [V07-09140, 3-(7-amino-4-oxo-6,8-disulfo-1,2,3,4-tetrahydro-cyclopenta[c]chromen-1-yl)-3-sulfo-propionic acid tris sodium salt]	435	350	–	–	–
CCOC(=O)CCC1CCc2c1c1ccc(NC(=O)OCC)cc1oc2=O (stereo not drawn) [V07-09096, 3-(7-ethoxycarbonylamino-4-oxo-1,2,3,4-tetrahydro-cyclopenta[c]chromen-1-yl)propionic acid ethylester]	–	–	–	–	ε ([1]; in methanol): 23000 L/mol/cm; λem ([1]; in methanol): 393 nm; λmax ([1]; in methanol): 328 nm
Nc1ccc2c3c(c(=O)oc2c1S(=O)(=O)O)CCC3C(CC(=O)NCCCC(=O)O)S(=O)(=O)O (stereo not drawn) [V07-09111, 4-[3-(7-amino-4-oxo-6-sulfo-1,2,3,4-tetrahydro-cyclopenta[c]chromen-1-yl)-3-sulfo-propionylamino]-butyric acid]	430	352	–	–	absorbance spectrum maximum ([4]; in ethanol): 351 nm; emission spectrum maximum ([4]; in ethanol): 443 nm; absorbance spectrum maximum ([4]; in water): 350 nm; emission spectrum maximum ([4]; in water): 430 nm
Nc1ccc2c3c(c(=O)oc2c1S(=O)(=O)O)CCC3C(CC(=O)O)S(=O)(=O)[O-].[Na+] (stereo not drawn) [V07-09089, 3-(7-amino-4-oxo-6-sulfo-1,2,3,4-tetrahydro-cyclopenta[c]chromen-1-yl)-3-sulfopropionic acid bis sodium salt]	429	352	–	–	binding in a functional plate assay among the DY-350 dyes ([2]; comparison among the DY-350 dyes): lower binding in a functional plate assay
